Measured values as given in patent US11207289B2, “Use of benzofuran lignans to induce IL-25 expression and suppress mammary tumor metastasis” (ACADEMIA SINICA, priority 2016, dated 2021).

Legend:
[1] = test system: mouse IL-25; assay: 3-D culture, western blot of IL-25 in 3T3 fibroblasts and 3T3-CM; type: cell-based
Experimental: To mimic the tumor microenvironment, a 3-dimensional (3-D) co-culture system was employed for the maintenance of mammary tumor cells and tumor-associated fibroblasts in adjacent collagen gels as reported in Rajan et al., Nature protocols, 1, 2753-2758 (2006). More specifically, rat tail collagen solution dissolved in acetic acid was neutralized by 1 N NaOH and then mixed with 10×PBS at 4° C. in a ratio of 9:1. To construct solid tumor-like cell mass, mouse (4T1 or TS/A cells) or human (MCF-7 or MDA-MB-231 cells) mammary tumor cells in each correspondent culture medium (1×10^6 cells/ml) were mixed with 4 mg/ml collagen solution in a ratio of 1:1. Four drops of collagen-tumor cell mixture ([…]) were immediately and separately loaded on culture substratum in each well of a 6-well plate. The plates were then turned-over and kept in CO2 incubator at 37° C. for collagen gelation. […]
To pull down and deplete IL-25 protein molecules in 3T3 or MDA-MB-231 cell conditioned media, the Dynabeads antibody coupling kit (Life Technology; 14311D) was used according to the manufacturer's recommendations, yielding 10 mg/ml anti-IL25 antibody (ProteinTech, Chicago, Ill.)-coupled beads. […] The antibody-pulled down proteins from 3T3-CM, NHDF-CM or WI38-CM, were detected for the content of secreted IL-25 protein in each conditioned medium using western blot analysis. […]

[2] = test system: K562 cells; settings: cited from earlier work

## COC(=O)/C=C/c1cc(O)c2c(c1)C(C(=O)OC)C(c1ccc(O)c(O)c1)O2 (stereo not drawn) [Q2-3, methyl(E)-3-[2-(3,4-dihydroxyphenyl)-7-hydroxy-3-methoxycarbonyl-2,3-dihydro-1-benzofuran-5yl]-prop-2-enoate]
[1]; 3-D culture, treatment 24 h or 72 h
  expression of IL-25 in mouse (3T3) fibroblasts: increased
[1]; 3T3-CM
  level of secreted IL-25 in fibroblast-conditioned medium vs untreated: significantly higher
[2]
  anti-proliferation effect: significant anti-proliferation effect
